≈ marks a conversion by molar mass, not a printed value. Where two headings read alike, the source gives them in different places.
What was measured:
[1] = system: Adriamycin-sensitive P388 leukemia cells (P388/S); test: Growth inhibition of cultured Adriamycin-sensitive P388 leukemia cells; format: cell-based; conditions: Mus musculus, read-out: IC50 (μg/ml) P388/S
From the text: The substance MH190 of the present invention are capable of inhibiting the growth of cultured Adriamycin-sensitive P388 leukemia cells (P388/S) and Adriamycin-resistant P388 leukemia cells (P388/ADR) in very low concentrations.

[2] = system: Adriamycin-resistant P388 leukemia cells (P388/ADR); test: Growth inhibition of cultured Adriamycin-resistant (multi-drug resistant) P388 leukemia cells; format: cell-based; conditions: for IC50: Mus musculus, read-out: IC50 (μg/ml) P388/ADR; for Ratio (P388/ADR to P388/S): ratio of IC50 P388/ADR to IC50 P388/S
[3] = Stability (physicochemical properties, Table 5); conditions: light, acid, alkali, silica gel
[4] = Solubility in solvents (physicochemical properties, Table 5); conditions: for Solubility (1) Soluble: solvents in which the substance is soluble; for Solubility (2) Sparingly soluble: solvents in which the substance is sparingly soluble
[5] = system: L1210 leukemia cells; test: Anti-tumor activity against intraperitoneally transplanted L1210 leukemia in mice (life prolongation); format: in vivo, CDF1 mice; conditions: for Percentage life prolongation: intraperitoneal for 10 days, survival of saline control taken as 100
Protocol: L1210 leukemia cells (1 x 10^5 per animal) were transplanted intraperitoneally into CDF1 mice. Immediately after the transplantation, a solution of MH190 Y2 was injected intraperitoneally for 10 days in a dose of […]. The percentage life prolongation of each of the treated mice was checked and the results are shown below, with the number of days of survival of control mice to which physiological saline had been administered being taken as 100.

[6] = Acute toxicity (LD50), single intraperitoneal injection; conditions: mouse, in vivo, ip; single intraperitoneal injection into mice

Structure (SMILES)	IC50 ([1]; cultured P388/S cells)	IC50 ([2]; cultured P388/ADR cells)	Ratio (P388/ADR to P388/S) [2]	Stability [3]	Solubility (1) Soluble [4]	Solubility (2) Sparingly soluble [4]	IC50 ([1]; P388/S)	IC50 ([2]; P388/ADR)	Percentage life prolongation ([5]; dose 0.156 mg/Kg/dat)	Percentage life prolongation ([5]; dose 0.313 mg/Kg/dat)	Percentage life prolongation ([5]; dose 0.625 mg/Kg/dat)	Percentage life prolongation ([5]; dose 1.25 mg/Kg/dat)	Percentage life prolongation ([5]; dose 2.5 mg/Kg/dat)	Percentage life prolongation ([5]; dose 5 mg/Kg/dat)	anti-tumor activities ([5]; doses ranging from 0.313 to 5 mg/kg/day)	LD50 [6]
CC1OC(OC2CCC(OC3(C)CC(=O)C4(O)C5=C(C=CC4(O)C3)C(=O)c3c(ccc(C4CC(O)C(OC6C=CC(=O)C(C)O6)C(C)O4)c3O)C5=O)OC2C)C=CC1=O (centres unmarked) [MH190 Y1, Saquayamycin A]	0.067 µg/mL (≈ 0.0816 µM)	0.056 µg/mL (≈ 0.0682 µM)	0.84	instable against light, acid and alkali changed to MH190 Y2 on silica gel	CHCl3, ethyl acetate, butyl acetate, methanol, acetonitrile, acetone, dimethyl sulfoxide	H2O, hexane, petroleum ether	–	–	–	–	–	–	–	–	–	–
CC1OC(OC2CCC(OC3(C)CC(=O)C4(O)C5=C(C=CC4(O)C3)C(=O)c3c(ccc(C4CC6OC7CC(=O)C(C)OC7OC6C(C)O4)c3O)C5=O)OC2C)CCC1=O (centres unmarked) [MH190 Y4, Saquayamycin D]	–	–	0.86	instable against light, acid and alkali	CHCl3, ethyl acetate, butyl acetate, methanol, acetonitrile, acetone, dimethyl sulfoxide	H2O, hexane, petroleum ether	0.07 µg/mL (≈ 0.0851 µM)	0.06 µg/mL (≈ 0.0729 µM)	–	–	–	–	–	–	–	–
CC1OC(OC2C(O)CC(c3ccc4c(c3O)C(=O)C3=C(C4=O)C4(O)C(=O)CC(C)(O)CC4(O)C=C3)OC2C)CCC1=O (centres unmarked) [MH190 Y3-1, Saquayamycin C1]	–	–	–	instable against light, acid and alkali	CHCl3, ethyl acetate, butyl acetate, methanol, acetonitrile acetone, dimethyl sulfoxide	H2O, hexane, petroleum ether	–	–	–	–	–	–	–	–	–	–
CC1OC(OC2CCC(OC3(C)CC(=O)C4(O)C5=C(C=CC4(O)C3)C(=O)c3c(ccc(C4CC(O)C(OC6CCC(=O)C(C)O6)C(C)O4)c3O)C5=O)OC2C)CCC1=O (centres unmarked) [MH190 Y3, Saquayamycin C]	–	–	0.83	instable against light, acid and alkali	CHCl3, ethyl acetate, butyl acetate, methanol, acetonitrile, acetone, dimethyl sulfoxide	H2O, hexane, petroleum ether	0.072 µg/mL (≈ 0.0873 µM)	0.06 µg/mL (≈ 0.0727 µM)	–	–	–	–	–	–	–	–
CC1OC2OC3C(C)OC(c4ccc5c(c4O)C(=O)C4=C(C5=O)C5(O)C(=O)CC(C)(O)CC5(O)C=C4)CC3OC2CC1=O (centres unmarked) [MH190 Y2-1, Saquayamycin B1]	–	–	0.57	instable against light, acid and alkali	CHCl3, ethyl acetate, butyl acetate, methanol, acetonitrile, acetone, dimethyl sulfoxide	H2O, hexane, petroleum ether	0.13 µg/mL (≈ 0.218 µM)	0.074 µg/mL (≈ 0.124 µM)	–	–	–	–	–	–	–	–
CC1OC(OC2CCC(OC3(C)CC(=O)C4(O)C5=C(C=CC4(O)C3)C(=O)c3c(ccc(C4CC6OC7CC(=O)C(C)OC7OC6C(C)O4)c3O)C5=O)OC2C)C=CC1=O (centres unmarked) [MH190 Y2, Saquayamycin B]	–	–	0.84	instable against light, acid and alkali	CHCl3, ethyl acetate, butyl acetate, methanol, acetonitrile, acetone, dimethyl sulfoxide	H2O, hexane, petroleum ether	0.08 µg/mL (≈ 0.0975 µM)	0.067 µg/mL (≈ 0.0816 µM)	102	127	120	127	151	175	appreciable anti-tumor activities	6.25 to 12.5 mg/kg
COc1cccc2c1C(=O)c1c(O)c3c(c(O)c1C2=O)C[C@@](O)(C(=O)CO)C[C@@H]3O[C@H]1C[C@H](N)[C@H](O)[C@H](C)O1 [Adriamycin, reference compound]	–	0.38 µg/mL (≈ 0.699 µM)	31.7	–	–	–	0.012 µg/mL (≈ 0.0221 µM)	–	–	–	–	–	–	–	–	–
CC1OC(OC2C(O)CC(c3ccc4c(c3O)C(=O)C3=C(C4=O)C4(O)C(=O)CC(C)(O)CC4(O)C=C3)OC2C)C=CC1=O (centres unmarked) [MH190 Y1-1, Saquayamycin A1]	–	–	0.51	instable against light, acid and alkali changed to MH190 Y2 on silica gel	CHCl3, ethyl acetate, butyl acetate, methanol, acetonitrile, acetone, dimethyl sulfoxide	H2O, hexane, petroleum ether	0.175 µg/mL (≈ 0.293 µM)	0.09 µg/mL (≈ 0.151 µM)	–	–	–	–	–	–	–	–

From patent publication EP0191399A2, “Benz[a]anthraquinone compounds, a microbial process for their preparation and their use as medicaments” (priority 1985, dated 1986)
